From patent publication US5973005A, “Aqueous creatine solution and process of producing a stable, bioavailable aqueous creatine solution” (priority 1998, dated 1999)
“Also recorded” adds a separate entry of the source.

Columns and labels:
[1] = test system: adenosine triphosphate resynthesis; settings: in muscle, creatine phosphate versus glycogen; cited from earlier work
[2] = endogenous level; cited from earlier work
[3] = acidic conditions / stomach; cited from earlier work
physchem = settings: weakly alkaline water
Experimental: A 1 ml sample was analyzed by HPLC using a Shimadzu LC-10AD Liquid Chromatograph. The operating parameters are as follows:
The operating parameters are as follows:

| Structure (SMILES) | rate of ATP resynthesis compared to glycogen [1] | creatine remaining, by HPLC (slightly alkaline water) | creatinine produced, by HPLC (weakly alkaline water) | normal creatine concentration in the bloodstream [2] | conversion to creatinine under acidic conditions [3] | degraded (physchem) |
| --- | --- | --- | --- | --- | --- | --- |
| CN(CC(=O)O)C(=N)NP(=O)(O)O [Creatine phosphate] | nearly twice the rate | – | – | – | – | – |
| CN(CC(=O)O)C(=N)N [creatine, N-(aminoiminomethyl)-N-methylglycine] | – | about 85% | about 15% | about 50 μmol per liter of blood | formation of creatinine from free creatine is complete; also recorded: rapidly converts to creatinine by the acidic conditions in the stomach | ~15% |
